Source: ChEMBL document CHEMBL6092207 (J Med Chem, 2024)
pKi: −log10 of the molar value.

Experiment: Binding affinity to SARS-CoV-2 Omicron main protease P132H mutant expressed in Escherichia coli assessed as dissociation constant using fluorogenic substrate incubated for 90 mins by fluorescence based analysis
Set-up: species or system Severe acute respiratory syndrome coronavirus 2

Row | Structure (SMILES) | pKi
1 | CC(C)(C)[C@H](NC(=O)C(F)(F)F)C(=O)N1C[C@H]2[C@@H]([C@H]1C(=O)N[C@H](C#N)C[C@@H]1CCNC1=O)C2(C)C | 9.00
2 | CN1C(=O)C[C@H]2CC3(CC3)CN2C(=O)c2cncc(c2)NCCCCCCNC(=O)[C@H]1Cc1ccc(Cl)cc1Cl | > 9.00
3 | CN1C(=O)C[C@H]2CC3(CC3)CN2C(=O)c2cncc(c2)NCCC/C=C/CNC(=O)[C@H]1Cc1ccc(Cl)cc1Cl | > 9.00
4 | CNC[C@@H](Cc1ccc(Cl)cc1)N(C)C(=O)C[C@H]1CCCN1C(=O)c1cncc2ccccc12 | 7.46

Experiment: Binding affinity to SARS-CoV-2 main protease E166 V mutant expressed in Escherichia coli assessed as dissociation constant using fluorogenic substrate incubated for 90 mins by fluorescence based analysis
Set-up: species or system Severe acute respiratory syndrome coronavirus 2

Row | Structure (SMILES) | pKi
5 | CC(C)(C)[C@H](NC(=O)C(F)(F)F)C(=O)N1C[C@H]2[C@@H]([C@H]1C(=O)N[C@H](C#N)C[C@@H]1CCNC1=O)C2(C)C | < 5.30
6 | CN1C(=O)C[C@H]2CC3(CC3)CN2C(=O)c2cncc(c2)NCCCCCCNC(=O)[C@H]1Cc1ccc(Cl)cc1Cl | 7.92
7 | CN1C(=O)C[C@H]2CC3(CC3)CN2C(=O)c2cncc(c2)NCCC/C=C/CNC(=O)[C@H]1Cc1ccc(Cl)cc1Cl | 7.96
8 | CNC[C@@H](Cc1ccc(Cl)cc1)N(C)C(=O)C[C@H]1CCCN1C(=O)c1cncc2ccccc12 | 5.92
